{
  "source": "patent US20050019288A1",
  "about": "“Alcohol-based aerosol deodorant composition comprising at lease one zinc salicylate or a derivative thereof” (priority 2003, published 2005)",
  "key": {"Corynebacterium xerosis": {"system": "Corynebacterium xerosis", "test": "Bactericidal activity of a composition on microorganisms involved in underarm odor", "format": "cell-based", "conditions": "summary in text for the active agent", "method": "The test described herein allows a quantitative determination of the bactericidal activity of a composition on microorganisms under optimum growth conditions, i.e., microorganisms of the Corynebacterium xerosis type (Institut Pasteur Collection No. 5216) grown on soybean tryptocasein agar on a slope.\nOn the day before the test, 32 g of soybean tryptocasein broth were placed in a pill bottle and incubated at 35° C. On the day of the test, 4 g of the test composition were added and the mixture was homogenized using a Vortex mixer.\nA product-free growth control was prepared under the same conditions in order to check that the microorganisms were under favorable growth conditions throughout the duration of the test.\nFor the preparation of the inoculum, five days before the start of the test, the two bacterial strains were subcultured on a suitable medium. Incubation was performed for 5 days at 35° C. On the day of the test, the slope was washed with about 9 ml of diluent: the suspension obtained has a titre of […] (counting was performed). […]\nThe colonies were counted on the dishes containing more than 20 and less than 200 colonies. […]\nThe bactericidal activity of each of the formulations 2, 3 and 4 with respect to the strain Corynebacterium xerosis was measured and compared with a formulation without active agent."}, "[1]": {"test": "Efficacy test: odor of incubated underarm sweat judged by a panel of experts against control sweat", "parameters": "species or system human", "conditions": "37° C, average of 18 hours and 24 hours, compared with control sweat", "method": "Underarm sweat was collected from six volunteers in a sauna, the samples of individual sweat, stored in ice for a few hours, are at that point virtually odorless. They were subsequently mixed together and divided into 1 ml aliquots. The active agents were added to these aliquots, which were then incubated in an oven at 37° C. After these samples were incubated for 18 and 24 hours, a panel of experts evaluated the intensity of the odor compared with a control sample, which was 1 ml of sweat incubated without addition of active agent.\nThe results are expressed below as a percentage of change in the unpleasantness of the odor compared with this control sweat sample (average of the percentages of change at 18 hours and 24 hours).\nThe active agents (A) and (B) correspond to zinc salicylate trihydrate from Bernardy Chimie and to the active agent (C) containing Triclosan."}},
  "data": [
    {"compound": "Zinc salicylate", "values": [
      {"measurement": "antibacterial activity on the Corynebacterium xerosis strains", "setting": "Corynebacterium xerosis", "value": "low (1 Log of reduction: low)"}
    ]},
    {"compound": "Oc1cc(Cl)ccc1Oc1ccc(Cl)cc1Cl", "note": "[(C), 2,4,4′-trichloro-2′-hydroxydiphenyl ether, reference compound]", "values": [
      {"measurement": "% change in the unpleasantness of odor", "setting": "[1]; 0.8 mg AM/ml of sweat", "value": "−55", "unit": "%"}
    ]},
    {"compound": "zinc salicylate trihydrate [(A)]", "values": [
      {"measurement": "% change in the unpleasantness of odor", "setting": "[1]; 1 mg AM/ml of sweat", "value": "−45", "unit": "%"},
      {"measurement": "% change in the unpleasantness of odor", "setting": "[1]; 5 mg AM/ml of sweat", "value": "−48", "unit": "%"}
    ]}
  ]
}
